Experiments:
[1] = test system: GLXMAW (Soybean, Williams); test: Preemergence herbicidal evaluation; format: in vivo, Glycine max, (L.) Merr. cv Williams; conditions: rated 4-5 weeks after treatment
Method in brief: (§1)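 Steps: mix seeds into potting soil; plant atop ~1 inch soil; spray compound in aqueous acetone (~0.0156-0.500 kg/ha equivalent); maintain in greenhouse with watering; rate visually 0-9 versus control at 4-5 weeks.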

[2] = test system: TRZAWR (Wheat, Winter, cv Riband); test: Postemergence herbicidal evaluation; format: in vivo, Triticum aestivum; conditions: postemergence
Method in brief: (§2)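 Each compound, dispersed in an acetone/water mix (50/50) carrying 0.5% TWEEN 20, is nozzle-sprayed at 40 psi on approximately two-week-old seedlings at about 0.0156–0.500 kg/ha. Plants are assessed 4–5 weeks afterward on a 0–9 scale relative to control; duplicate tests are averaged.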

[3] = test system: SAGPY (Arrowhead (Pygmaea)); test: Preemergence weed control under flooded paddy conditions; format: in vivo, Sagittaria pygmaea; conditions: rated 3-4 weeks after treatment
Method in brief: (§3)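 Visual injury scored 0-9 against control three to four weeks post-treatment, greenhouse-grown. Application: acetone/water (50/50) solutions dosed directly into flood water (1.5-3 cm over silt loam, planted top 0.5 cm), roughly 0.0313 to 0.500 kg/ha active ingredient.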

[4] = test system: CHEAL (Lambsquarters, Common); test: Postemergence herbicidal evaluation; format: in vivo, Chenopodium album; conditions: postemergence
Method in brief: as §2

[5] = test system: IPOHE (Morningglory, Ivyleaf); test: Preemergence herbicidal evaluation; format: in vivo, Ipomoea hederacea; conditions: rated 4-5 weeks after treatment
Method in brief: as §1

ABUTH (Velvetleaf) = test: Preemergence herbicidal evaluation; format: in vivo, Abutilon theophrasti; conditions: rated 4-5 weeks after treatment
Method in brief: as §1

CASOB (Sicklepod) [6] = test: Preemergence herbicidal evaluation; format: in vivo, Cassia obtusifolia; conditions: rated 4-5 weeks after treatment
Method in brief: as §1

CASOB (Sicklepod) [7] = test: Postemergence herbicidal evaluation; format: in vivo, Cassia obtusifolia; conditions: postemergence
Method in brief: as §2

ORYSAT (Rice, Tebonnet) = test: Preemergence herbicidal evaluation; format: in vivo, Oryza sativa, (L.) Tebonnet; conditions: rated 4-5 weeks after treatment
Method in brief: as §1

MOOVA (Monochoria) = test: Preemergence weed control under flooded paddy conditions; format: in vivo, Monochoria vaginalis; conditions: rated 3-4 weeks after treatment
Method in brief: as §3

AMBEL (Ragweed, Common) [8] = test: Postemergence herbicidal evaluation; format: in vivo, Ambrosia artemisifolia; conditions: postemergence
Method in brief: as §2

[9] = test system: IPOHE (Morningglory, Ivyleaf); test: Postemergence herbicidal evaluation; format: in vivo, Ipomoea hederacea; conditions: postemergence
Method in brief: as §2

AMBEL (Ragweed, Common) [10] = test: Preemergence herbicidal evaluation; format: in vivo, Ambrosia artemisifolia; conditions: rated 4-5 weeks after treatment
Method in brief: as §1

[11] = test system: CHEAL (Lambsquarters, Common); test: Preemergence herbicidal evaluation; format: in vivo, Chenopodium album; conditions: rated 4-5 weeks after treatment
Method in brief: as §1

ECHCG (Barnyardgrass) = test: Postemergence herbicidal evaluation; format: in vivo, Echinochloa crus-galli; conditions: postemergence
Method in brief: as §2

[12] = test system: GLXMAW (Soybean, Williams); test: Postemergence herbicidal evaluation; format: in vivo, Glycine max, (L.) Merr. cv Williams; conditions: postemergence
Method in brief: as §2

CCOC(=O)CN1C(=O)C(=Cc2ccccc2)SC1=Nc1cc(-n2c(=O)cc(C(F)(F)F)n(C)c2=O)c(F)cc1Cl [Compound 19, Ethyl 5-benzylidene-2-{{2-chloro-5-[3,6-dihydro-3-methyl-2,6-dioxo-4-(trifluoromethyl)-1(2H)-pyrimidinyl]-4-fluorophenyl}imino}-4-oxo-3-thiazolidineacetate]
GLXMAW preemergence herbicidal rating ([1]; rate 0.1250 kg/ha): 0.0 | GLXMAW preemergence herbicidal rating ([1]; rate 0.2500 kg/ha): 0.0 | TRZAWR herbicidal rating ([2]; rate 0.0158 kg/ha): 3.0 | TRZAWR herbicidal rating ([2]; rate 0.0315 kg/ha): 4.0 | TRZAWR herbicidal rating ([2]; rate 0.0630 kg/ha): 4.5 | Herbicidal rating SAGPY ([3]; 0.1160 kg/ha): 0.0 | Herbicidal rating SAGPY ([3]; 0.2310 kg/ha): 3.0 | Herbicidal rating SAGPY ([3]; 0.4630 kg/ha): 3.0 | CHEAL herbicidal rating ([4]; rate 0.0158 kg/ha): 3.0 | CHEAL herbicidal rating ([4]; rate 0.0315 kg/ha): 7.0 | CHEAL herbicidal rating ([4]; rate 0.0630 kg/ha): 9.0 | IPOHE preemergence herbicidal rating ([5]; rate 0.1250 kg/ha): 0.0 | IPOHE preemergence herbicidal rating ([5]; rate 0.2500 kg/ha): 0.0 | ABUTH preemergence herbicidal rating (ABUTH (Velvetleaf); rate 0.1250 kg/ha): 9.0 | ABUTH preemergence herbicidal rating (ABUTH (Velvetleaf); rate 0.2500 kg/ha): 9.0 | CASOB preemergence herbicidal rating (CASOB (Sicklepod) [6]; rate 0.1250 kg/ha): 0.0 | CASOB preemergence herbicidal rating (CASOB (Sicklepod) [6]; rate 0.2500 kg/ha): 0.0 | CASOB herbicidal rating (CASOB (Sicklepod) [7]; rate 0.0158 kg/ha): 0.0 | CASOB herbicidal rating (CASOB (Sicklepod) [7]; rate 0.0315 kg/ha): 1.0 | CASOB herbicidal rating (CASOB (Sicklepod) [7]; rate 0.0630 kg/ha): 1.0 | ORYSAT preemergence herbicidal rating (ORYSAT (Rice, Tebonnet); rate 0.1250 kg/ha): 0.0 | ORYSAT preemergence herbicidal rating (ORYSAT (Rice, Tebonnet); rate 0.2500 kg/ha): 0.0 | Herbicidal rating MOOVA (MOOVA (Monochoria); 0.1160 kg/ha): 9.0 | Herbicidal rating MOOVA (MOOVA (Monochoria); 0.2310 kg/ha): 9.0 | Herbicidal rating MOOVA (MOOVA (Monochoria); 0.4630 kg/ha): 9.0 | AMBEL herbicidal rating (AMBEL (Ragweed, Common) [8]; rate 0.0158 kg/ha): 3.0 | AMBEL herbicidal rating (AMBEL (Ragweed, Common) [8]; rate 0.0315 kg/ha): 3.0 | AMBEL herbicidal rating (AMBEL (Ragweed, Common) [8]; rate 0.0630 kg/ha): 7.0 | IPOHE herbicidal rating ([9]; rate 0.0158 kg/ha): 2.0 | IPOHE herbicidal rating ([9]; rate 0.0315 kg/ha): 9.0 | IPOHE herbicidal rating ([9]; rate 0.0630 kg/ha): 5.0 | AMBEL preemergence herbicidal rating (AMBEL (Ragweed, Common) [10]; rate 0.1250 kg/ha): 0.0 | AMBEL preemergence herbicidal rating (AMBEL (Ragweed, Common) [10]; rate 0.2500 kg/ha): 1.0 | CHEAL preemergence herbicidal rating ([11]; rate 0.1250 kg/ha): 9.0 | CHEAL preemergence herbicidal rating ([11]; rate 0.2500 kg/ha): 9.0 | ECHCG herbicidal rating (ECHCG (Barnyardgrass); rate 0.0158 kg/ha): 1.0 | ECHCG herbicidal rating (ECHCG (Barnyardgrass); rate 0.0315 kg/ha): 2.0 | ECHCG herbicidal rating (ECHCG (Barnyardgrass); rate 0.0630 kg/ha): 2.0 | GLXMAW herbicidal rating ([12]; rate 0.0158 kg/ha): 3.0 | GLXMAW herbicidal rating ([12]; rate 0.0315 kg/ha): 4.5 | GLXMAW herbicidal rating ([12]; rate 0.0630 kg/ha): 4.5
